Source: PubChem BioAssay AID330 (DTP/NCI, 2004)
Values joined by “and” are separate entries in the source; they are usually repeats but may differ in a detail not shown here. Equal entries are not always repeated. Toxic doses and inconclusive results are not listed.

Test system: P388 leukemia ip, CD2F1 mice, survival T/C
Assay: NCI In Vivo Anticancer Drug Screen. Data for tumor model P388 Leukemia (intraperitoneal) in CD2F1 (CDF1) mice
Conditions: endpoint: median survival time, higher = longer survival
How it was run: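 Mice carrying the transplanted tumor received test compound or vehicle. Survival was recorded in each group, and the value is the treated-group measurement divided by that of the vehicle-treated control group.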

[1] = dose: 50.0 mg/kg/injection, schedule: Q01DX009 (ip), vehicle: saline with Tween-80
[2] = dose: 100.0 mg/kg/injection, schedule: Q01DX009 (ip), vehicle: saline with Tween-80
[3] = dose: 200.0 mg/kg/injection, schedule: Q01DX009 (ip), vehicle: saline with Tween-80
[4] = dose: 50.0 mg/kg/injection, schedule: Q01DX009 (ip), vehicle: Klucel (hydroxypropylcellulose) (HPC)
[5] = dose: 100.0 mg/kg/injection, schedule: Q01DX009 (ip), vehicle: Klucel (hydroxypropylcellulose) (HPC)

## O=c1[nH]c(=O)n(C2OC(CO)C(O)C2O)cc1F (stereo unspecified)
dose: 0.62 mg/kg/injection, schedule: Q01DX009 (ip), vehicle: saline
  T/C: 179 % of control
dose: 0.79 mg/kg/injection, schedule: Q01DX009 (ip), vehicle: saline
  T/C: 157 % of control
dose: 1.0 mg/kg/injection, schedule: Q01DX005 (ip), vehicle: saline
  T/C: 158 % of control
dose: 1.57 mg/kg/injection, schedule: Q01DX009 (ip), vehicle: saline
  T/C: 169 % of control
dose: 2.0 mg/kg/injection, schedule: Q01DX005 (ip), vehicle: saline
  T/C: 172 % of control
dose: 2.5 mg/kg/injection, schedule: Q01DX009 (ip), vehicle: saline
  T/C: 176 % of control and 205 % of control
dose: 3.89 mg/kg/injection, schedule: Q04DX003 (ip), vehicle: saline
  T/C: 157 % of control
dose: 4.0 mg/kg/injection, schedule: Q01DX005 (ip), vehicle: saline
  T/C: 185 % of control
dose: 5.0 mg/kg/injection, schedule: Q01DX009 (ip), vehicle: saline
  T/C: 189 % of control
dose: 6.48 mg/kg/injection, schedule: Q04DX002 (ip), vehicle: saline
  T/C: 150 % of control
dose: 6.48 mg/kg/injection, schedule: Q04DX003 (ip), vehicle: saline
  T/C: 159 % of control
dose: 10.8 mg/kg/injection, schedule: Q04DX002 (ip), vehicle: saline
  T/C: 160 % of control
dose: 10.8 mg/kg/injection, schedule: Q04DX003 (ip), vehicle: saline
  T/C: 175 % of control
dose: 18.0 mg/kg/injection, schedule: Q04DX003 (ip), vehicle: saline
  T/C: 186 % of control

## CC1(C)Cc2c(nc3ccccc3c2C(N)=O)-c2ccccc21
dose: 50.0 mg/kg/injection, schedule: Q01DX005 (ip), vehicle: Klucel (hydroxypropylcellulose) (HPC)
  T/C: 88 % of control
dose: 100.0 mg/kg/injection, schedule: Q01DX005 (ip), vehicle: Klucel (hydroxypropylcellulose) (HPC)
  T/C: 88 % of control
dose: 200.0 mg/kg/injection, schedule: Q01DX005 (ip), vehicle: Klucel (hydroxypropylcellulose) (HPC)
  T/C: 88 % of control

## O=C1/C(=N/O)Cc2ccccc21
dose: 12.5 mg/kg/injection, schedule: Q04DX003 (ip), vehicle: saline with Tween-80
  T/C: 100 % of control
dose: 25.0 mg/kg/injection, schedule: Q04DX003 (ip), vehicle: saline with Tween-80
  T/C: 100 % of control
dose: 50.0 mg/kg/injection, schedule: Q04DX003 (ip), vehicle: saline with Tween-80
  T/C: 100 % of control

## O=C1CCC2ON=C(Br)C12 (stereo unspecified)
dose: 20.0 mg/kg/injection, schedule: Q01DX005 (ip), vehicle: distilled water + Tween-80
  T/C: 110 % of control
dose: 40.0 mg/kg/injection, schedule: Q01DX005 (ip), vehicle: distilled water + Tween-80
  T/C: 112 % of control
dose: 80.0 mg/kg/injection, schedule: Q01DX005 (ip), vehicle: distilled water + Tween-80
  T/C: 112 % of control

## C1Cc2onc(-c3noc4c3CCC4)c2C1
dose: 60.0 mg/kg/injection, schedule: Q01DX005 (ip), vehicle: saline
  T/C: 104 % of control
dose: 120.0 mg/kg/injection, schedule: Q01DX005 (ip), vehicle: saline
  T/C: 96 % of control
dose: 240.0 mg/kg/injection, schedule: Q01DX005 (ip), vehicle: saline
  T/C: 99 % of control

## c1nc2c(o1)CCCC2
dose: 60.0 mg/kg/injection, schedule: Q01DX005 (ip), vehicle: saline with Tween-80
  T/C: 104 % of control
dose: 120.0 mg/kg/injection, schedule: Q01DX005 (ip), vehicle: saline with Tween-80
  T/C: 101 % of control
dose: 240.0 mg/kg/injection, schedule: Q01DX005 (ip), vehicle: saline with Tween-80
  T/C: 95 % of control

## O=C(O)c1cc(-c2ccc(Cl)cc2)nc2c(-c3ccccc3)cccc12
[1]
  T/C: 91 % of control
[2]
  T/C: 103 % of control
[3]
  T/C: 104 % of control

## Cc1nn(-c2ccccc2)c2c1C(c1ccc(Cl)cc1)C(C#N)=C(N)O2 (stereo unspecified)
[4]
  T/C: 94 % of control
[5]
  T/C: 96 % of control

## CN(C)c1ccc(-c2nc3ccccc3s2)c(Cl)c1
[1]
  T/C: 102 % of control
[2]
  T/C: 103 % of control
[3]
  T/C: 109 % of control

## N=C(N)c1ccc2oc(/C=C/C=C/C=C/c3cc4cc(C(=N)N)ccc4o3)cc2c1
dose: 100.0 mg/kg/injection, schedule: Q04DX003 (ip), vehicle: saline
  T/C: 124 % of control

## CCNC(=O)C#CC(=O)NCC
[4]
  T/C: 92 % of control
[5]
  T/C: 92 % of control
dose: 200.0 mg/kg/injection, schedule: Q01DX009 (ip), vehicle: Klucel (hydroxypropylcellulose) (HPC)
  T/C: 95 % of control
